Source: patent US6271342A, “Sugar-modified cytostatics” (Bayer Aktiengesellschaft, priority 1995, dated 2001)
Structures can show the parent of a compound that is named as a salt.

Columns and labels:
[1] = Acute toxicity, single administration; format: in vivo, nu/nu naked mice; conditions: for acute toxicity detected: dose of 400 mg/kg; for acute toxicity detected / individual dose of the substances which can be tolerated: single administration; for Individual dose tolerated in mg/kg of mouse, i.v.: single administration i.v., aqueous solution; for Individual dose tolerated in mg/kg of mouse, i.p.: single administration i.p., solution in dimethyl sulphoxide
Protocol: Determination of the Acute Toxicity of Glycoconjugates of Batracyline (Single Administration)
The acute toxicity of the batracyline derivatives was determined on nu/nu naked mice.
The substances administered i.v., as aqueous solutions, and the substances administered i.p., as solutions in dimethyl sulphoxide, were injected once in concentrations of up to 400 mg of substance per kg of mouse.
The individual dose tolerated was calculated from the decrease in the weight of the animals up to 21 days after administration and from the number of animals surviving.

SW 480 = assay: Growth inhibition test (MTT) for cytotoxic properties; format: cell-based, human
Method in brief: (§1)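 IC50 values come from an MTT read at 540 nm (5 h at 37 °C, 5 mg/ml MTT stock), taken on day 3 and day 6. Cells (HT 29, SW 480; 50,000 cells/ml in RPMI/10% FCS) were pre-cultured 1 day, then compound in DMSO was added.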

HT 29 = assay: as above; format: cell-based, human
Method in brief: as §1

B 16 F 10 = assay: as above; format: cell-based, mouse; conditions: Table 1b
Protocol: Growth Inhibition Test for Determination of the Cytotoxic Properties of Glycoconjugates of Batracyline and of Quinolone-a
The human colon cell lines SW 480 and HT 29 (ATCC no. CCL 228 and HBT-38) and the mouse melanoma cell line B 16 F 10 were cultured in Roux dishes in RPMI 1640 medium with addition of 10% FCS. The cultures were then trypsinized and taken up in RPMI plus 10% FCS to a cell count of 50,000 cells/ml. 100 μl of cell suspension/well were introduced into a 96 microwell plate and incubated for 1 day at 37° C. in a CO2 incubating cabinet. A further 100 μl of RPMI medium and 1 μl of dimethyl sulphoxide with the test substances were then added. The growth was checked after day 3 and day 6. 40 μl of MTT solution (3-(4,5-dimethylthiazol-2-yl)-2,5-diphenyltetrazoline bromide) with an initial concentration of 5 mg/ml of H2 O were added to each microwave. The plate was incubated for 5 hours in a CO2 incubating cabinet at 37° C. The medium was then sucked off and 100 μl of i-propanol/well were added. After shaking for 30 minutes with 100 μl of H2 O, the extinction was measured at 540 nm with a Titertek Multiskan MCC/340 (Flow).

[2] = Table 1a, glycoconjugates of batracyline

With `CC(NC(=O)C(N)CCCCNC(=S)Nc1ccc(OC2OC(CO)C(O)C(OCC(=O)[O-])C2O)cc1)C(=O)Nc1ccc2c(c1)CN1C(=O)c3ccccc3C1=N2.[Na+]` [Example 3.33, N-{N^ε -[O-(3-O-Carboxymethyl-β-D-galactopyranosyl)-4-hydroxy-phenylamino-thiocarbonyl]-lysyl-D-alanyl}-batracyline, sodium salt] the acute toxicity detected [1] was “no acute toxicity”, the “individual dose of the substances which can be tolerated” value [1] was “more than 200 mg of substance per kg of mouse” and the “Individual dose tolerated in mg/kg of mouse, i.v.” value (shortened to “Individual dose tolerated … i.v.”) [1] was > 400 mg/kg of mouse. The IC50 (SW 480; [2]) was 90 µM and the IC50 (HT 29; [2]) was 70 µM.
With `CC(NC(=O)C(CCCCNC(=S)Nc1ccc(OC2OC(CO)C(O)C(OCC(=O)[O-])C2O)cc1)NC(=S)Nc1ccc(OC2OC(CO)C(O)C(OCC(=O)[O-])C2O)cc1)C(=O)Nc1ccc2nc3n(c(=O)c2c1)Cc1ccccc1-3.[Na+].[Na+]` [Example 6.81, N-{N^α,N^ε -Bis-[O-(3-O-carboxymethyl-β-D-galactopyranosyl)-4hydroxy-phenylamino-thiocarbonyl]-lysyl-D-alanyl}-batracyline, di-sodium salt] the acute toxicity detected [1] was “no acute toxicity”, the “individual dose of the substances which can be tolerated” value [1] was “more than 200 mg of substance per kg of mouse” and the “Individual dose tolerated … i.v.” value [1] was > 400 mg/kg of mouse. The IC50 (SW 480; [2]) was 30 µM and the IC50 (HT 29; [2]) was 30 µM.
With `CO[C@H]1[C@H](O)[C@@H](Oc2ccc(Nc3nc(NCCO)nc(NCCCC[C@H](N)C(=O)N[C@H](C)C(=O)Nc4ccc5c(=O)n6c(nc5c4)-c4ccccc4C6)n3)cc2)O[C@@H](C)[C@H]1O.O=C(O)C(F)(F)F` [Example 8.2, N-{N^ε -[4-Hydroxyethylamino-2-[O-(3-O-methyl-β-L-fucosyl)-4-hydroxy-phenylamino]-triazin-6-yl]-lysyl-D-alanyl}-batracyline, trifluoroacetate] the “individual dose of the substances which can be tolerated” value [1] was “more than 200 mg of substance per kg of mouse” and the “Individual dose tolerated in mg/kg of mouse, i.p.” value (“Individual dose tolerated … i.p.” below) [1] was > 200 mg/kg of mouse.
For `COc1cccc2c1C(=O)c1c(O)c3c(c(O)c1C2=O)CC(O)(C(=O)CO)CC3OC1CC(NC(=O)C(C)NC(=O)C(C)NC(=S)Nc2ccc(OC3OC(C)C(O)C(OC)C3O)cc2)C(O)C(C)O1` [Example 17.1, N-{N'-[O-(3--Methyl-β-L-fucopyranosyl)-4-hydroxy-phenylamino-thiocarbonyl]-alanyl-alanyl}-doxorubicin], the IC50 (B 16 F 10) was 5 µM, the IC50 (SW 480; Table 1b) was 10 µM and the IC50 (HT 29; Table 1b) was 5 µM.
`COc1cccc2c1C(=O)c1c(O)c3c(c(O)c1C2=O)CC(O)(C(=O)CO)CC3OC1CC(NC(=O)C(C)NC(=O)C(CCCCNC(=S)Nc2ccc(OC3OC(C)C(O)C(OC)C3O)cc2)NC(=S)Nc2ccc(OC3OC(C)C(O)C(OC)C3O)cc2)C(O)C(C)O1` [Example 17.2, N-{N^α,N^ε -Bis-[O-(3-O-methyl-β-L-fuccopyranosyl)-4-hydroxy-phenylamino-thiocarbonyl]-D-lysyl-alanyl}-doxorubicin] showed an IC50 (B 16 F 10) of 4 µM, an IC50 (SW 480; Table 1b) of 4 µM and an IC50 (HT 29; Table 1b) of 4 µM.
With `CCC1(OC(=O)C(C)NC(=O)C(CCCCNC(=S)Nc2ccc(OC3OC(C)C(O)C(OC)C3O)cc2)NC(=S)Nc2ccc(OC3OC(C)C(O)C(OC)C3O)cc2)C(=O)OCc2c1cc1n(c2=O)Cc2cc3ccccc3nc2-1` [Example 18.1, 20-O-{N^α,N^ε -Bis-[O-(3-O-methyl-β-L-fucopyranosyl)-4-hydroxy-phenylamino-thiocarbonyl]-lysyl-alanyl}-camptothecin] the IC50 (B 16 F 10) was 0.2 µM, the IC50 (SW 480; Table 1b) was 0.03 µM and the IC50 (HT 29; Table 1b) was 0.01 µM.
With `CCC1(OC(=O)C(C)NC(=O)C(CCCCN)NC(=S)Nc2ccc(OC3OC(C)C(O)C(OCC(=O)O)C3O)cc2)C(=O)OCc2c1cc1n(c2=O)Cc2cc3ccccc3nc2-1` (stereo not drawn) [Example 18.2, 20-O-{N^α -[O-(3-O-Carboxymethyl-β-fucopyranosyl)-4hydroxy-phenylamino-thiocarbonyl]-lysyl-alanyl}-camptothecin] the IC50 (B 16 F 10) was 0.2 µM, the IC50 (SW 480; Table 1b) was 0.02 µM and the IC50 (HT 29; Table 1b) was 0.02 µM.
Work on `CCC1(OC(=O)C(C)NC(=O)C(CCCCNC(=S)Nc2ccc(OC3OC(C)C(O)C(OC)C3O)cc2)NC(=S)Nc2ccc(OC3OC(C)C(O)C(OC)C3O)cc2)C(=O)OCc2c1cc1n(c2=O)Cc2cc3ccccc3nc2-1` [Example 18.4, 20-O-{N^α,N^ε -Bis-[O-(3-O-methyl-β-L-fucopyranosyl)-4-hydroxy-phenylamino-thiocarbonyl]-lysyl-D-alanyl}-camptothecin] yielded an IC50 (B 16 F 10) of 0.3 µM, an IC50 (SW 480; Table 1b) of 0.02 µM and an IC50 (HT 29; Table 1b) of 0.02 µM.
Work on `CCC1(OC(=O)C(NC(=O)C(CCCCNC(=S)Nc2ccc(OC3OC(C)C(O)C(OC)C3O)cc2)NC(=S)Nc2ccc(OC3OC(C)C(O)C(OC)C3O)cc2)C(C)C)C(=O)OCc2c1cc1n(c2=O)Cc2cc3ccccc3nc2-1` [Example 18.5, 20-O-{N^α,N^ε -Bis-[O-(3-O-methyl-β-L-fucopyranosyl)-4-hydroxy-phenylamino-thiocarbonyl]-lysyl-valinyl}-camptothecin] yielded an IC50 (B 16 F 10) of 1 µM, an IC50 (SW 480; Table 1b) of 0.2 µM and an IC50 (HT 29; Table 1b) of 0.2 µM.
With `CCC1(OC(=O)[C@@H](NC(=O)[C@H](CCCCN)NC(=S)Nc2ccc(O[C@H]3O[C@@H](C)[C@@H](O)[C@@H](OCC(=O)O)[C@@H]3O)cc2)C(C)C)C(=O)OCc2c1cc1n(c2=O)Cc2cc3ccccc3nc2-1` (stereo partly drawn) [Example 18.9, 20-O-{N^α [O-(3-O-Carboxymethyl-β-L-fucopyranosyl)-4-hydroxy-phenylamino-thiocarbonyl]-lysyl-valinyl}-camptothecin, hydrochloride] the IC50 (B 16 F 10) was 0.7 µM, the IC50 (SW 480; Table 1b) was 0.08 µM and the IC50 (HT 29; Table 1b) was 0.06 µM.
With `CC[C@@]1(OC(=O)[C@H](C)NC(=O)[C@H](CCCCN)NC(=S)Nc2ccc(O[C@H]3O[C@@H](C)[C@@H](O)[C@@H](OC)[C@@H]3O)cc2)C(=O)OCc2c1cc1n(c2=O)Cc2cc3ccccc3nc2-1` [Example 18.14, 20-O-{N^α -[O-(3-O-Methyl-β-L-fucopyranosyl)-4-hydroxy-phenylamino-thiocarbonyl]-lysyl-alanyl}-camptothecin, hydrochloride] the IC50 (B 16 F 10) was 0.08 µM, the IC50 (SW 480; Table 1b) was 0.015 µM and the IC50 (HT 29; Table 1b) was 0.01 µM.
With “N-[Lysyl-D-alanyl]-batracyline, di-trifluoroacetate [Example 2.13]” the “Individual dose tolerated … i.p.” value [1] was 50 mg/kg of mouse and the “Individual dose tolerated … i.v.” value [1] was 25 mg/kg of mouse.
With “N-{N^α,N^ε -Bis-[O-(β-L-fucosyl)-4-hydroxy-phenylamino-thiocarbonyl]-lysyl-D-ala nyl}-batracyline [Example 6.14]” the acute toxicity detected [1] was “no acute toxicity”, the “individual dose of the substances which can be tolerated” value [1] was “more than 200 mg of substance per kg of mouse” and the “Individual dose tolerated … i.p.” value [1] was > 400 mg/kg of mouse.
With “N-{N^ε -[O-(3,4-Di-O-methyl-β-D-galactopyranosyl)-4-hydroxy-phenylamino-thio carbonyl]-lysyl-D-alanyl}-batracyline, trifluoroacetate [Example 3.16]” the “individual dose of the substances which can be tolerated” value [1] was “more than 200 mg of substance per kg of mouse” and the “Individual dose tolerated … i.p.” value [1] was > 200 mg/kg of mouse.
